{"source": "ChEMBL document CHEMBL1201862", "about": "“PubChem BioAssay data set” (2004)", "test_in_all_cases": "NCI anticancer screen, dose series, 48 h", "key": {"BT-549": {"system": "BT-549"}, "SNB-19": {"system": "SNB-19"}, "A498": {"system": "A498"}, "SW-620": {"system": "SW-620"}, "UO-31": {"system": "UO-31"}, "OVCAR-3": {"system": "OVCAR-3"}, "NCI-H23": {"system": "NCI-H23"}, "ACHN": {"system": "ACHN"}, "M14": {"system": "M14"}, "OVCAR-8": {"system": "OVCAR-8"}, "K562": {"system": "K562"}, "RPMI-8226": {"system": "RPMI-8226"}, "SK-MEL-2": {"system": "SK-MEL-2"}, "HCT-116": {"system": "HCT-116"}, "MCF7": {"system": "MCF7"}, "Hs-578T": {"system": "Hs-578T"}, "UACC-257": {"system": "UACC-257"}, "NCI-H522": {"system": "NCI-H522"}, "MDA-MB-231": {"system": "MDA-MB-231"}, "OVCAR-4": {"system": "OVCAR-4"}, "OVCAR-5": {"system": "OVCAR-5"}, "SN12C": {"system": "SN12C"}, "NCI-H460": {"system": "NCI-H460"}, "HCT-15": {"system": "HCT-15"}, "CAKI-1": {"system": "CAKI-1"}, "SF-295": {"system": "SF-295"}, "EKVX": {"system": "EKVX"}, "SR": {"system": "SR"}, "A549": {"system": "A549"}, "CCRF-CEM": {"system": "CCRF-CEM"}, "MDA-N": {"system": "MDA-N"}, "DU-145": {"system": "DU-145"}, "NCI-H226": {"system": "NCI-H226"}, "HL-60": {"system": "HL-60"}, "TK-10": {"system": "TK-10"}, "SK-MEL-28": {"system": "SK-MEL-28"}, "HCC 2998": {"system": "HCC 2998"}, "T47D": {"system": "T47D"}, "HOP-62": {"system": "HOP-62"}, "RXF 393": {"system": "RXF 393"}, "MOLT-4": {"system": "MOLT-4"}, "UACC-62": {"system": "UACC-62"}, "U-251": {"system": "U-251"}, "KM12": {"system": "KM12"}, "COLO 205": {"system": "COLO 205"}, "SK-MEL-5": {"system": "SK-MEL-5"}, "786-0": {"system": "786-0"}, "HOP-92": {"system": "HOP-92"}, "LOX IMVI": {"system": "LOX IMVI"}, "IGROV-1": {"system": "IGROV-1"}, "SF-268": {"system": "SF-268"}, "PC-3": {"system": "PC-3"}, "MDA-MB-435": {"system": "MDA-MB-435"}, "SF-539": {"system": "SF-539"}, "HT-29": {"system": "HT-29"}, "NCI/ADR-RES": {"system": "NCI/ADR-RES"}}, "note": "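Growth conditions: 96-well plates. Treatment: test compound, 48 hours, 5 concentrations. Analysis: linear interpolation between bracketing concentrations; unreached endpoints set to highest concentration. At the GI50, growth is halved.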 Active and inactive are the calls of the source. Cut-off read from the data, not from the text of the source: active = GI50 up to about 1.1 µM and inactive = higher.", "data": [{"smiles": "CC(=O)Nc1cc2cc(NS(=O)(=O)c3ccc(Cl)c(Cl)c3)ccc2oc1=O", "values": [{"measurement": "GI50", "setting": "BT-549", "value": "49.1 µM (inactive)"}, {"measurement": "GI50", "setting": "SNB-19", "value": "34.4 µM (inactive)"}, {"measurement": "GI50", "setting": "A498", "value": "20 µM (inactive)"}, {"measurement": "GI50", "setting": "SW-620", "value": "50.7 µM (inactive)"}, {"measurement": "GI50", "setting": "UO-31", "value": "46 µM (inactive)"}, {"measurement": "GI50", "setting": "OVCAR-3", "value": "> 100 µM (inactive)"}, {"measurement": "GI50", "setting": "NCI-H23", "value": "> 100 µM (inactive)"}, {"measurement": "GI50", "setting": "ACHN", "value": "42 µM (inactive)"}, {"measurement": "GI50", "setting": "M14", "value": "64.1 µM (inactive)"}, {"measurement": "GI50", "setting": "OVCAR-8", "value": "17.8 µM (inactive)"}, {"measurement": "GI50", "setting": "K562", "value": "56.5 µM (inactive)"}, {"measurement": "GI50", "setting": "RPMI-8226", "value": "40.3 µM (inactive)"}, {"measurement": "GI50", "setting": "SK-MEL-2", "value": "20.3 µM (inactive)"}, {"measurement": "GI50", "setting": "HCT-116", "value": "28.2 µM (inactive)"}, {"measurement": "GI50", "setting": "MCF7", "value": "21.2 µM (inactive)"}, {"measurement": "GI50", "setting": "Hs-578T", "value": "22.4 µM (inactive)"}, {"measurement": "GI50", "setting": "UACC-257", "value": "> 100 µM (inactive)"}, {"measurement": "GI50", "setting": "NCI-H522", "value": "23.4 µM (inactive)"}, {"measurement": "GI50", "setting": "MDA-MB-231", "value": "17.2 µM (inactive)"}, {"measurement": "GI50", "setting": "OVCAR-4", "value": "30.3 µM (inactive)"}, {"measurement": "GI50", "setting": "OVCAR-5", "value": "> 100 µM (inactive)"}, {"measurement": "GI50", "setting": "SN12C", "value": "25.8 µM (inactive)"}, {"measurement": "GI50", "setting": "NCI-H460", "value": "37.8 µM (inactive)"}, {"measurement": "GI50", "setting": "HCT-15", "value": 90.6, "unit": "µM"}, {"measurement": "GI50", "setting": "CAKI-1", "value": "20 µM (inactive)"}, {"measurement": "GI50", "setting": "SF-295", "value": "19.6 µM (inactive)"}, {"measurement": "GI50", "setting": "EKVX", "value": "68.5 µM (inactive)"}, {"measurement": "GI50", "setting": "SR", "value": "33.9 µM (inactive)"}, {"measurement": "GI50", "setting": "A549", "value": "32.7 µM (inactive)"}, {"measurement": "GI50", "setting": "CCRF-CEM", "value": "53.8 µM (inactive)"}, {"measurement": "GI50", "setting": "MDA-N", "value": "51.8 µM (inactive)"}, {"measurement": "GI50", "setting": "DU-145", "value": "> 100 µM (inactive)"}, {"measurement": "GI50", "setting": "NCI-H226", "value": "31.8 µM (inactive)"}, {"measurement": "GI50", "setting": "HL-60", "value": "43.5 µM (inactive)"}, {"measurement": "GI50", "setting": "TK-10", "value": "43.2 µM (inactive)"}, {"measurement": "GI50", "setting": "SK-MEL-28", "value": "35 µM (inactive)"}, {"measurement": "GI50", "setting": "HCC 2998", "value": "40.5 µM (inactive)"}, {"measurement": "GI50", "setting": "T47D", "value": "3.21 µM (inactive)"}, {"measurement": "GI50", "setting": "HOP-62", "value": "19.8 µM (inactive)"}, {"measurement": "GI50", "setting": "RXF 393", "value": "12.5 µM (inactive)"}, {"measurement": "GI50", "setting": "MOLT-4", "value": "27.4 µM (inactive)"}, {"measurement": "GI50", "setting": "UACC-62", "value": "24.4 µM (inactive)"}, {"measurement": "GI50", "setting": "U-251", "value": "22.6 µM (inactive)"}, {"measurement": "GI50", "setting": "KM12", "value": "25.1 µM (inactive)"}, {"measurement": "GI50", "setting": "COLO 205", "value": "25.5 µM (inactive)"}, {"measurement": "GI50", "setting": "SK-MEL-5", "value": "28.1 µM (inactive)"}, {"measurement": "GI50", "setting": "786-0", "value": "17.4 µM (inactive)"}, {"measurement": "GI50", "setting": "HOP-92", "value": "20.8 µM (inactive)"}, {"measurement": "GI50", "setting": "LOX IMVI", "value": "20 µM (inactive)"}, {"measurement": "GI50", "setting": "IGROV-1", "value": "75.9 µM (inactive)"}, {"measurement": "GI50", "setting": "SF-268", "value": "26.2 µM (inactive)"}, {"measurement": "GI50", "setting": "PC-3", "value": "22.4 µM (inactive)"}, {"measurement": "GI50", "setting": "MDA-MB-435", "value": "36.1 µM (inactive)"}, {"measurement": "GI50", "setting": "SF-539", "value": "25.1 µM (inactive)"}, {"measurement": "GI50", "setting": "HT-29", "value": "35.3 µM (inactive)"}, {"measurement": "GI50", "setting": "NCI/ADR-RES", "value": "34.2 µM (inactive)"}]}]}
